Results reported in patent US11000033B2, “Ketone or oxime compound, and herbicide” (NISSAN CHEMICAL CORPORATION, priority 2014, dated 2021).

Tests used:
Format in all cases: in vivo
Chenopodium album = test: Test Example 5: herbicidal effect by foliage application, plastic box (symbol O); conditions: 320 g/ha, 3 weeks after application
In short: (§1)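 Post-emergence spray; diluvial soil (sterilized), ~1.5 cm seed cover; greenhouse 25–30° C; 14-day-old plants; water-diluted emulsion at predetermined dose; visual score at 3 wk post-treatment.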

Apera spica-venti = test: Test Example 4: herbicidal effect by soil treatment (symbol L); conditions: application herbicide amount 320 g/ha
In short: (§2)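 Seeds were sown in sterilized diluvial soil, covered with about 1.5 cm of soil, and the soil surface was sprayed with a water-diluted emulsion of the compound at a predetermined rate. Plants grew in a greenhouse at 25° C. to 30° C.; effects were scored visually 3 weeks after application.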

Cyperus difformis = test: Test Example 3: herbicidal effect by foliage application, Wagner pot (symbol E); conditions: application herbicide amount 320 g/ha
In short: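 Rating at 3 weeks post-spray, by defined criteria. Treatment: emulsion diluted with water to a predetermined amount, applied evenly to foliage of 14-day-old plants raised in alluvial soil flooded 0.1–0.5 cm deep at 25–30 °C, rice co-sown.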

corn = test: Test Example 5: effect on crop by foliage application, plastic box (symbol c); conditions: 320 g/ha, 3 weeks after application
In short: (§3)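 Diluvial soil, sterilized and boxed (21 × 13 × 7 cm), received spot-sown seed covered by about 1.5 cm soil; plants were then greenhouse-grown at 25–30° C.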

Veronica persica [1] = test: Test Example 4: herbicidal effect by soil treatment (symbol R); conditions: application herbicide amount 320 g/ha
In short: as §2

[2] = tested on: Echinochloa oryzacola Vasing.; test: Test Example 1: herbicidal activity, application before weed generation in submerged conditions (symbol A); conditions: application herbicide amount 320 g/ha
In short: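 Pre-emergence, paddy conditions: emulsifiable formulation diluted in water, dosed onto floodwater (4 cm depth) on sowing day. Alluvial soil; weeds sown mixed; rice transplanted at 2.5-leaf stage. Greenhouse 25–30 °C, 3 wk. Score 0–5 (5 = ≥90% kill, 0 = ≤5%).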

Amaranthus retroflexus = test: Test Example 4: herbicidal effect by soil treatment (symbol N); conditions: application herbicide amount 320 g/ha
In short: as §2

Galium spurium = test: Test Example 5: herbicidal effect by foliage application, plastic box (symbol Q); conditions: 320 g/ha, 3 weeks after application
In short: as §1

Abutilon theophrasti = test: Test Example 4: herbicidal effect by soil treatment (symbol M); conditions: application herbicide amount 320 g/ha
In short: as §2

soybean = test: Test Example 5: effect on crop by foliage application, plastic box (symbol d); conditions: 320 g/ha, 3 weeks after application
In short: as §3

Veronica persica [3] = test: Test Example 5: herbicidal effect by foliage application, plastic box (symbol R); conditions: 320 g/ha, 3 weeks after application
In short: as §1

wheat = test: Test Example 4: effect on crop by soil treatment (symbol e); conditions: application herbicide amount 320 g/ha
In short: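 Diluvial soil (sterilized) in boxes; seeds placed spot-wise alongside weed species; ~1.5 cm covering soil. Greenhouse, 25–30° C.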

CON=C(C)CC1CC(O)=C(c2c(C)cc(C(C)=O)cc2C)C1=O (stereo not drawn) [6-026]
O: Chenopodium album, herbicidal effect grade (Chenopodium album): 0 (Herbicidal ratio of 5% or lower (almost no effect))
L: Apera spica-venti, herbicidal effect grade (Apera spica-venti): 0 (Herbicidal ratio of 5% or lower (almost no effect))
herbicidal effect on E, grade 0-5 (Cyperus difformis): 5 (Herbicidal ratio of 90% or more (almost completely withered))
c: corn, effect on crop grade (corn): 5 (Herbicidal ratio of 90% or more (almost completely withered))
R: Veronica persica, herbicidal effect grade (Veronica persica [1]): 0 (Herbicidal ratio of 5% or lower (almost no effect))
Herbicidal effect grade, A: Echinochloa oryzacola Vasing. [2]: 1 (Herbicidal ratio of 5% or higher and lower than 20%)
N: Amaranthus retroflexus, herbicidal effect grade (Amaranthus retroflexus): 2 (Herbicidal ratio of 20% or higher and lower than 40%)
Q: Galium spurium, herbicidal effect grade (Galium spurium): 0 (Herbicidal ratio of 5% or lower (almost no effect))
M: Abutilon theophrasti, herbicidal effect grade (Abutilon theophrasti): 0 (Herbicidal ratio of 5% or lower (almost no effect))
d: soybean, effect on crop grade (soybean): 0 (Herbicidal ratio of 5% or lower (almost no effect))
R: Veronica persica, herbicidal effect grade (Veronica persica [3]): 1 (Herbicidal ratio of 5% or higher and lower than 20%)
e: wheat, effect on crop grade (wheat): 0 (Herbicidal ratio of 5% or lower (almost no effect))

CON=C(C)CC1CC(O)=C(c2c(C)cc(C)cc2Br)C1=O (stereo not drawn) [6-038]
O: Chenopodium album, herbicidal effect grade (Chenopodium album): 3 (Herbicidal ratio of 40% or higher and lower than 70%)
L: Apera spica-venti, herbicidal effect grade (Apera spica-venti): 5 (Herbicidal ratio of 90% or more (almost completely withered))
herbicidal effect on E, grade 0-5 (Cyperus difformis): 5 (Herbicidal ratio of 90% or more (almost completely withered))
c: corn, effect on crop grade (corn): 5 (Herbicidal ratio of 90% or more (almost completely withered))
R: Veronica persica, herbicidal effect grade (Veronica persica [1]): 1 (Herbicidal ratio of 5% or higher and lower than 20%)
Herbicidal effect grade, A: Echinochloa oryzacola Vasing. [2]: 5 (Herbicidal ratio of 90% or more (almost completely withered))
N: Amaranthus retroflexus, herbicidal effect grade (Amaranthus retroflexus): 4 (Herbicidal ratio of 70% or higher and lower than 90%)
Q: Galium spurium, herbicidal effect grade (Galium spurium): 0 (Herbicidal ratio of 5% or lower (almost no effect))
M: Abutilon theophrasti, herbicidal effect grade (Abutilon theophrasti): 5 (Herbicidal ratio of 90% or more (almost completely withered))
d: soybean, effect on crop grade (soybean): 4 (Herbicidal ratio of 70% or higher and lower than 90%)
R: Veronica persica, herbicidal effect grade (Veronica persica [3]): 3 (Herbicidal ratio of 40% or higher and lower than 70%)
e: wheat, effect on crop grade (wheat): 1 (Herbicidal ratio of 5% or higher and lower than 20%)

CON=C(C)CC1CC(O)=C(c2c(C)cc(OCC(F)(F)F)cc2C)C1=O (stereo not drawn) [6-049]
O: Chenopodium album, herbicidal effect grade (Chenopodium album): 5 (Herbicidal ratio of 90% or more (almost completely withered))
L: Apera spica-venti, herbicidal effect grade (Apera spica-venti): 5 (Herbicidal ratio of 90% or more (almost completely withered))
herbicidal effect on E, grade 0-5 (Cyperus difformis): 5 (Herbicidal ratio of 90% or more (almost completely withered))
c: corn, effect on crop grade (corn): 5 (Herbicidal ratio of 90% or more (almost completely withered))
R: Veronica persica, herbicidal effect grade (Veronica persica [1]): 4 (Herbicidal ratio of 70% or higher and lower than 90%)
Herbicidal effect grade, A: Echinochloa oryzacola Vasing. [2]: 5 (Herbicidal ratio of 90% or more (almost completely withered))
N: Amaranthus retroflexus, herbicidal effect grade (Amaranthus retroflexus): 4 (Herbicidal ratio of 70% or higher and lower than 90%)
Q: Galium spurium, herbicidal effect grade (Galium spurium): 5 (Herbicidal ratio of 90% or more (almost completely withered))
M: Abutilon theophrasti, herbicidal effect grade (Abutilon theophrasti): 4 (Herbicidal ratio of 70% or higher and lower than 90%)
d: soybean, effect on crop grade (soybean): 2 (Herbicidal ratio of 20% or higher and lower than 40%)
R: Veronica persica, herbicidal effect grade (Veronica persica [3]): 5 (Herbicidal ratio of 90% or more (almost completely withered))
e: wheat, effect on crop grade (wheat): 5 (Herbicidal ratio of 90% or more (almost completely withered))
